In patent US20240122847A1, “ORAL POLYPEPTIDE FORMULATIONS” (Bhami's Research Laboratory, Pvt. Ltd., priority 2022, published 2024):
Where two headings read alike, the source gives them in different places.

What was measured:
[1] = system: serum calcium, serum phosphorous and alkaline phosphatase; experiment: Pharmacodynamics of PTH in Yorkshire pigs; format: in vivo; set-up: sCa / sP / sALP: unit not given here
Description: The serum calcium and serum phosphorous were estimated using Siemen's […] 744 Electrolyte Analyzer and for serum ALP Siemen's Dimension Expand Plus was used.
The pharmacodynamics data in subcutaneous and buccal/Sublingual groups are shown in Tables 21 and 22 and in FIGS. 63 and 64.

[2] = Pharmacokinetics of PTH (1-34) in minipigs, sugar truffle buccal/sublingual vs SC, plasma PTH (1-34) ELISA; conditions: for AUC(0-inf) / AUC 0-t / AUC(t-inf) extrapolated / MRT inf / AUMC 0-inf_obs / AUMC 0-inf_pred / AUMC 0-t / AUMC t-inf_obs / AUMC t-inf_pred / Clast_obs / Clast_pred / Lambda_z / Tlag / Tlast: minipigs; for Mean PTH (1-34) levels: pigs, GII - Buccal/sublingual 0.49 mg
Description: (§1) Pharmacokinetic analysis was conducted in Female Minipigs weighing 12±1 kg for 2 days. Pigs in the oral treatment group was either fasted overnight or fed prior to the test sample administration. All the test animals in the treatment groups were administered with respective test formulation to the pre-designated animals. The animal was restrained and its head was held vertically, the jaws were pulled away, the tongue was gently lifted with a forceps followed by placement of a polypeptide formulation as described herein buccally/sublingually. After placing a polypeptide formulation as described herein, the snout was held together for about 1-2 mins to prevent the chewing of the polypeptide formulation. The time of dosage of each animal was noted. Blood samples were collected at aforementioned time points 0 min, 5 min, 30 min, 1 hour, 2 hours, 4 hours, 8 hours, and 24 hours into an EDTA-blood collection tubes for the separation of plasma to determine PTH (1-34) levels by ELISA. Plasma samples collected at different time points were analyzed by ELISA kit according to Creative Diagnostics protocol. This kit is based on sandwich enzyme-linked immuno-sorbent assay technology. An antibody, anti-PTH (1-34) was pre-coated onto a 96-well plate. Standards, test samples, and biotin-conjugated reagent were added to the wells and incubated. The HRP-conjugated reagent was then added, and the whole plate was incubated. Unbound conjugates were removed using wash buffer at each stage. TMB substrate was used to quantify the HRP enzymatic reaction. After TMB substrate was added, only wells that contain sufficient PTH (1-34) will produce a blue colored product, which then changes to yellow after adding the acidic stop solution. The intensity of the yellow color is proportional to the PTH (1-34) amount bound on the plate. The Optical Density (OD) was measured spectrophotometrically at 450 nm in a microplate reader, from which the concentration of PTH (1-34) can be calculated.
(§2) PTH (1-34) was analyzed in plasma using a specific enzyme linked immunosorbent assay (ELISA). Pharmacokinetic endpoints were determined using noncompartmental methods using PK Solutions software. AUC was approximated using the trapezoidal rule on the observed concentrations. C max for each PTH (1-34) dose was derived as the maximum of all valid concentrations, and t max was then determined as the corresponding time point to C max. The terminal elimination rate constant (λz) was estimated by log-linear regression on the terminal part of the concentration-time curve, and t ½ was then calculated as t ½=ln 2/λz.

[3] = minipig, in vivo
Description: as §1, §2

[4] = Yorkshire pigs, Subcutaneous (40 μg), 24 h
[5] = female, Yorkshire, minipig, plasma, 0.49 mg
[6] = female, Yorkshire, minipig, plasma, sc, 0.04 mg

In the case of `CC[C@H](C)[C@H](NC(=O)[C@H](CCC(=O)O)NC(=O)[C@H](CO)NC(=O)[C@@H](NC(=O)[C@@H](N)CO)C(C)C)C(=O)N[C@@H](CCC(N)=O)C(=O)N[C@@H](CC(C)C)C(=O)N[C@@H](CCSC)C(=O)N[C@@H](Cc1cnc[nH]1)C(=O)N[C@@H](CC(N)=O)C(=O)N[C@@H](CC(C)C)C(=O)NCC(=O)N[C@@H](CCCCN)C(=O)N[C@@H](Cc1cnc[nH]1)C(=O)N[C@@H](CC(C)C)C(=O)N[C@@H](CC(N)=O)C(=O)N[C@@H](CO)C(=O)N[C@@H](CCSC)C(=O)N[C@@H](CCC(=O)O)C(=O)N[C@@H](CCCN=C(N)N)C(=O)N[C@H](C(=O)N[C@@H](CCC(=O)O)C(=O)N[C@@H](Cc1c[nH]c2ccccc12)C(=O)N[C@@H](CC(C)C)C(=O)N[C@@H](CCCN=C(N)N)C(=O)N[C@@H](CCCCN)C(=O)N[C@@H](CCCCN)C(=O)N[C@@H](CC(C)C)C(=O)N[C@@H](CCC(N)=O)C(=O)N[C@@H](CC(=O)O)C(=O)N[C@H](C(=O)N[C@@H](Cc1cnc[nH]1)C(=O)N[C@@H](CC(N)=O)C(=O)N[C@@H](Cc1ccccc1)C(=O)O)C(C)C)C(C)C` [PTH (1-34)], the sCa [1, 4] is reported as 9.4 ± 0.28, the sP [1, 4] is reported as 11.6 ± 0.28 and the “PD effect on serum calcium, serum phosphorous and serum alkaline phosphatase” value ([1]; pigs, PTH given by buccal/sublingual route) is reported as “clearly indicates the effect on serum calcium, serum phosphorous and serum alkaline phosphatase”. It also gave a Cmax [2, 5] of 3290 pg/mL, an MRT last [2, 5] of 1.35 h and a Tmax [2, 5] of 0.08 h. For the same compound, the half-life [2, 5] was 0.977 h, the level at 5 min [2, 5] was 3290 pg/mL and the level at 0.5 h [2, 5] was 3040 pg/mL. For the same compound, the level at 1 h [2, 5] was 2610 pg/mL, the level at 2 h [2, 5] was 1240 pg/mL and the level at 4 h [2, 5] was 189 pg/mL. It also gave a level at 8 h [2, 5] of 17.8 pg/mL, an AUC(0-inf) ([2]; female, Yorkshire, minipig, plasma, 0.49 mg, AUC 0-inf_obs, buccal/sublingual) of 6.67 ng·h/mL and an AUC(0-inf) ([2]; female, Yorkshire, minipig, plasma, 0.49 mg, AUC 0-inf_pred, buccal/sublingual) of 6.67 ng·h/mL. For the same compound, the AUC 0-t ([2]; female, Yorkshire, minipig, plasma, 0.49 mg, buccal/sublingual) was 6.64 ng·h/mL, the AUC(t-inf) extrapolated ([2]; female, Yorkshire, minipig, plasma, 0.49 mg, AUC t-inf_obs, buccal/sublingual) was 0.025 ng·h/mL and the AUC(t-inf) extrapolated ([2]; female, Yorkshire, minipig, plasma, 0.49 mg, AUC t-inf_pred, buccal/sublingual) was 0.022 ng·h/mL. For the same compound, the MRT inf ([2]; female, Yorkshire, minipig, plasma, 0.49 mg, MRT 0-inf_obs, buccal/sublingual) was 1.39 h, the MRT inf ([2]; female, Yorkshire, minipig, plasma, 0.49 mg, MRT 0-inf_pred, buccal/sublingual) was 1.38 h and the bioavailability ([2]; female, Yorkshire, minipig, plasma, other: buccal/sublingual, 0.49 mg) was 6%. It also gave a Cmax [2, 6] of 3280 pg/mL, an MRT last [2, 6] of 2.02 h and a Tmax [2, 6] of 0.5 h. It also gave a half-life [2, 6] of 4.55 h, a level at 0 h [2, 6] of 0.002 pg/mL and a level at 5 min [2, 6] of 394 pg/mL. For the same compound, the level at 0.5 h [2, 6] was 3280 pg/mL, the level at 1 h [2, 6] was 3260 pg/mL and the level at 2 h [2, 6] was 2990 pg/mL. The level at 4 h [2, 6] was 164 pg/mL, the level at 8 h [2, 6] was 50 pg/mL and the level at 24 h [2, 6] was 6.43 pg/mL. It also gave an AUC(0-inf) ([2]; female, Yorkshire, minipig, plasma, sc, 0.04 mg, AUC 0-inf_obs) of 9.62 ng·h/mL, an AUC(0-inf) ([2]; female, Yorkshire, minipig, plasma, sc, 0.04 mg, AUC 0-inf_pred) of 9.62 ng·h/mL and an AUC 0-t [2, 6] of 9.58 ng·h/mL. The AUC(t-inf) extrapolated ([2]; female, Yorkshire, minipig, plasma, sc, 0.04 mg, AUC t-inf_obs) was 0.0423 ng·h/mL, the AUC(t-inf) extrapolated ([2]; female, Yorkshire, minipig, plasma, sc, 0.04 mg, AUC t-inf_pred) was 0.0396 ng·h/mL and the MRT inf ([2]; female, Yorkshire, minipig, plasma, sc, 0.04 mg, MRT 0-inf_obs) was 2.15 h. For the same compound, the MRT inf ([2]; female, Yorkshire, minipig, plasma, sc, 0.04 mg, MRT 0-inf_pred) was 2.14 h, the “AUMC 0-inf_obs” value ([2]; SC, 0.04 mg) was 20668.040 pg/mL*h^2 and the “AUMC 0-inf_pred” value ([2]; SC, 0.04 mg) was 20587.700 pg/mL*h^2. The “AUMC 0-t” value ([2]; SC, 0.04 mg) was 19375.595 pg/mL*h^2, the “AUMC t-inf_obs” value ([2]; SC, 0.04 mg) was 1292.445 pg/mL*h^2 and the “AUMC t-inf_pred” value ([2]; SC, 0.04 mg) was 1212.104 pg/mL*h^2. The Clast_obs ([2]; SC, 0.04 mg) was 6.435 pg/mL, the Clast_pred ([2]; SC, 0.04 mg) was 6.035 pg/mL and the Lambda_z ([2]; SC, 0.04 mg) was 0.152 h⁻¹. The Tlag ([2]; SC, 0.04 mg) was 0.000 h, the Tlast ([2]; SC, 0.04 mg) was 24.000 h and the “AUMC 0-inf_obs” value ([2]; buccal/sublingual, 0.49 mg) was 9236.909 pg/mL*h^2. For the same compound, the “AUMC 0-inf_pred” value ([2]; buccal/sublingual, 0.49 mg) was 9208.738 pg/mL*h^2, the “AUMC 0-t” value ([2]; buccal/sublingual, 0.49 mg) was 9001.303 pg/mL*h^2 and the “AUMC t-inf_obs” value ([2]; buccal/sublingual, 0.49 mg) was 235.606 pg/mL*h^2. The “AUMC t-inf_pred” value ([2]; buccal/sublingual, 0.49 mg) was 207.435 pg/mL*h^2, the Clast_obs ([2]; buccal/sublingual, 0.49 mg) was 17.765 pg/mL and the Clast_pred ([2]; buccal/sublingual, 0.49 mg) was 15.641 pg/mL. For the same compound, the Lambda_z ([2]; buccal/sublingual, 0.49 mg) was 0.709 h⁻¹, the Tlag ([2]; buccal/sublingual, 0.49 mg) was 0.000 h and the Tlast ([2]; buccal/sublingual, 0.49 mg) was 8.000 h. For the same compound, the “Mean PTH (1-34) levels” value ([2]; 0 min) was 0.000 pg/mL, the “Mean PTH (1-34) levels” value ([2]; 24 hour) was 0.000 pg/mL and the “AUC 0-inf/D_obs” value ([3]; 0.49 mg) was 13610.915 pg·h/mL/mg. For the same compound, the “AUC 0-inf/D_pred” value ([3]; 0.49 mg) was 13604.805 pg·h/mL/mg, the “AUC 0-t/0-inf_obs” value ([3]; 0.49 mg) was 0.996 and the “AUC 0-t/0-inf_pred” value ([3]; 0.49 mg) was 0.997. For the same compound, the Clast_obs/Cmax ([3]; 0.49 mg) was 0.005, the Clast_pred/Cmax ([3]; 0.49 mg) was 0.005 and the “AUC 0-inf/D_obs” value ([3]; sc, 0.04 mg) was 240.561 pg·h/mL/µg. The “AUC 0-inf/D_pred” value ([3]; sc, 0.04 mg) was 240.495 pg·h/mL/µg, the “AUC 0-t/0-inf_obs” value ([3]; sc, 0.04 mg) was 0.996 and the “AUC 0-t/0-inf_pred” value ([3]; sc, 0.04 mg) was 0.996. The Cl/F_obs ([3]; sc, 0.04 mg) was 0.004 (μg)/(pg/mL)/h, the Cl/F_pred ([3]; sc, 0.04 mg) was 0.004 (μg)/(pg/mL)/h and the Clast_obs/Cmax ([3]; sc, 0.04 mg) was 0.002. The Clast_pred/Cmax ([3]; sc, 0.04 mg) was 0.002, the Vz/F_obs ([3]; sc, 0.04 mg) was 0.027 (μg)/(pg/mL) and the Vz/F_pred ([3]; sc, 0.04 mg) was 0.027 (μg)/(pg/mL).
